Molecules are shown by their SMILES.

The record followed here is patent publication US20040097566A1, “2-Substituted thiazolidinone and oxazolidinone derivatives for the inhibition of phosphatases and the treatment of cancer” (priority 2001, published 2004).

In turn, `O=C1N=C(N2CCCCC2)S/C1=C\c1cccc(-c2ccc(O)c(C(=O)c3ccccc3)c2)c1` [Compound 26, 5-[3-(3-Benzoyl-4-hydroxy-phenyl)benzylidene]-2-piperidin-1-yl-thiazol-4-one] had a melting point of 135 to 138 °C.

`O=C1N=C(N2CCNCC2)S/C1=C\c1cccc(-c2cc(F)c(O)c(C34CC5CC(CC(C5)C3)C4)c2)c1` [Compound 31, 5-[3-(3-Adamantan-1-yl-4-hydroxy-5-fluoro-phenyl)benzylidene]-2piperazin-1-yl-thiazol-4-one] registered a melting point of 230 to 233 °C. With `Cc1cc(O)c(C23CC4CC(CC(C4)C2)C3)cc1-c1cccc(/C=C2\SC(N3CCOCC3)=NC2=O)c1` [Compound 33, 5-[3-(3-Adamantan-1-yl-4-hydroxy-6-methyl-phenyl)benzylidene]-2-morpholin-4-yl-thiazol-4-one] the figure was 327 to 329 °C; with `O=C1N=C(N2CCOCC2)S/C1=C\c1ccc(-c2ccnc(C34CC5CC(CC(C5)C3)C4)n2)cc1` [Compound 41, 5-[4-(2-Adamantan-1-yl-pyrimidin-4-yl)-benzylidene]-2-morpholin-4-yl-thiazol-4-one], 283 to 285 °C.

With `CSC1=NC(=O)/C(=C/c2cccc(-c3cc(F)c(O)c(C45CC6CC(CC(C6)C4)C5)c3)c2)S1` [Compound 51, 5-[3-(3-Adamantan-1-yl-4-hydroxy-5-fluorophenyl)benzylidene]-2-methylsulfanyl-thiazol-4-one], the melting point is 270 to 271 °C. `O=C1N=C(NO)S/C1=C\c1cccc(-c2cc(F)c(O)c(C34CC5CC(CC(C5)C3)C4)c2)c1` [Compound 52, 5-[3-(3-Adamantan-1-yl-4-hydroxy-5-fluorophenyl)benzylidene]-2-hydroxyamino-thiazol-4-one] displayed a melting point of 238 to 240 °C. The result for `O=C1N=C(N2CCC[C@H]2C(=O)O)S/C1=C\c1cccc(-c2cc(F)c(O)c(C34CC5CC(CC(C5)C3)C4)c2)c1` [Compound 53, 5-[3-(3-Adamantan-1-yl-4-hydroxy-5-fluoro-phenyl)benzylidene]-2-(2-(S)-carboxy-1-yl)-thiazol-4-one] reads 195 to 198 °C; that for `O=C1N=C(N2CCCC2)S/C1=C\c1ccc(-c2cc(F)c(O)c(C34CC5CC(CC(C5)C3)C4)c2)s1` [Compound 59, 5-[5-(3-Adamantan-1-yl-4-hydroxy-5-fluoro-phenyl)-thiophene-2-yl-methylene]-2-pyrrolidine-1-yl-thiazol-4-one], 312 to 315 °C; that for `CN(C)c1ccc(/C=C2\SC(N3CCCC3)=NC2=O)cc1-c1cc(F)c(O)c(C23CC4CC(CC(C4)C2)C3)c1` [Compound 61, 5-[3-(3-Adamantan-1-yl-4-hydroxy-5-fluoro-phenyl)-4-dimethylamino-benzylidene]-2-pyrrolidin-1-yl-thiazol-4-one], 294 to 298 °C. The result for `O=C1N=C(N2CCOCC2)S/C1=C\c1ccc(OC(F)(F)F)c(-c2cc(F)c(O)c(C34CC5CC(CC(C5)C3)C4)c2)c1` [Compound 62, 5-[3-(3-Adamantan-1-yl-4-hydroxy-5-fluoro-phenyl)-4-trifluoromethoxy-benzylidene]-2-morpholin-4-yl-thiazol-4-one] reads 238 °C; that for `O=C1N=C(N2CCOCC2)S/C1=C\c1cccc(-c2ccc(O)c(F)c2)c1` [Compound 64, 5-[3-(3-Fluoro-4-hydroxy-phenyl)-benzylidene]-2-morpholin-4-yl-thiazol-4-one], 233 to 235 °C. The result for `O=C1N=C(NN2CCCC2)S/C1=C\c1cccc(-c2cc(F)c(O)c(C34CC5CC(CC(C5)C3)C4)c2)c1` [Compound 69, 5-[3-(3-Adamantan-1-yl-4-hydroxy-5-fluoro-phenyl)benzylidene]-2-(pyrrolidin-1-ylamino)-thiazol-4-one] reads 293 to 296 °C; that for `N=C(N)NC1=NC(=O)/C(=C/c2cccc(-c3cc(F)c(O)c(C45CC6CC(CC(C6)C4)C5)c3)c2)S1` [Compound 70, 5-[3-(3-Adamantan-1-yl-4-hydroxy-5-fluorophenyl)benzylidene]-2-(N-guanidinyl)-thiazol-4-one], 288 to 290 °C; that for `CONC1=NC(=O)/C(=C/c2cccc(-c3cc(F)c(O)c(C45CC6CC(CC(C6)C4)C5)c3)c2)S1` [Compound 71, 5-[3-(3-Adamantan-1-yl-4-hydroxy-5-fluorophenyl)benzylidene]-2-methoxyamino-thiazol-4-one], 286 to 288 °C. In turn, `NC(=O)NNC1=NC(=O)/C(=C/c2cccc(-c3cc(F)c(O)c(C45CC6CC(CC(C6)C4)C5)c3)c2)S1` [Compound 72, 5-[3-(3-Adamantan-1-yl-4-hydroxy-5-fluorophenyl)benzylidene]-2-semicarbazid-1-yl-thiazol-4-one] showed a melting point of 234 to 236 °C.

With `O=C1N=C(NN2CCOCC2)S/C1=C\c1cccc(-c2cc(F)c(O)c(C34CC5CC(CC(C5)C3)C4)c2)c1` [Compound 73, 5-[3-(3-Adamantan-1-yl-4-hydroxy-5-fluorophenyl)benzylidene]-2-(morpholin-4-yl-amino)-thiazol-4-one], the melting point was 304 to 309 °C. With `NNC1=NC(=O)/C(=C/c2cccc(-c3cc(F)c(O)c(C45CC6CC(CC(C6)C4)C5)c3)c2)S1` [Compound 74, 5-[3-(3-Adamantan-1-yl-4-hydroxy-5-fluorophenyl)benzylidene]-2-hydrazino-thiazol-4-one] the figure was 303 to 308 °C.

Molecule `O=C1N=C(N2CCC[C@@H]2C(=O)O)S/C1=C\c1cccc(-c2cc(F)c(O)c(C34CC5CC(CC(C5)C3)C4)c2)c1` [Compound 76, 5-[3-(3-Adamantan-1-yl-4-hydroxy-5-fluoro-phenyl)benzylidene]-2-(2-(R)-carboxy-1-yl)-thiazol-4-one] showed a melting point of 164 to 168 °C. The molecule `CC1(C)COc2ccc(-c3cncc(/C=C4\SC(N5CCOCC5)=NC4=O)c3)cc21` [Compound 82, 5-[5-(3,3-Dimethyl-2,3-dihydro-benzofuran-5-yl)-pyridin-3-ylmethylene]-2-morpholin-4-yl-thiazol-4-one] returned a melting point of 230 to 233 °C. The result for `COc1ccc(-c2ccc(O)c(C34CC5CC(CC(C5)C3)C4)c2)cc1/C=C1\SC(N2CCOCC2)=NC1=O` [Compound 86, 5-[3-(3-Adamantan-1-yl-4-hydroxy-phenyl)-6-methoxy-benzylidene]-2-morpholin-4-yl-thiazol-4-one] reads 355 to 360 °C. In turn, `O=C1N=C(N2CCOCC2)S/C1=C\c1cc(-c2ccc(O)c(C34CC5CC(CC(C5)C3)C4)c2)c(O)cc1O` [Compound 104, 5-[3-(3-Adamantan-1-yl-4-hydroxy-phenyl)-4,6-dihydroxy-benzylidene]-2-morpholin-4yl-thiazol-4-one] displayed a melting point of 306 to 310 °C. Molecule `O=C1N=C(N2CCC2)S/C1=C\c1cccc(-c2cc(F)c(O)c(C34CC5CC(CC(C5)C3)C4)c2)c1` [Compound 108] had a melting point of 154 to 157 °C.

As a reminder, the melting point is the temperature of the solid-liquid transition.
